We go through one molecule from US20230404913A1, “PHARMACEUTICAL FORMULATIONS FOR TREATING DISEASES ASSOCIATED WITH VOLTAGE-GATED SODIUM CHANNELS” (Xenon Pharmaceuticals, Inc., priority 2020, published 2023).

Data set [1] is described as follows: Pharmacokinetic study, 3-period crossover, plasma concentrations of Compound A by LC-MS/MS. The class given is in vivo, human. The following applies: for AUC(0-inf) / AUC(0-t): human, plasma, oral, 50 mg, pediatric formulation, 50 mg single dose; for AUC(0-inf): read-out: AUC0-inf, mean; for AUC(0-t): read-out: AUC0-t, mean. The protocol: (§1) In this single center, open-label, randomized study, 24 subjects (8 per each arm) received Compound A adult immediate release tablet or granular formulation suitable for reconstitution formulation in a fasted or fed state (high fat meal) in a 3-period, 3-sequence crossover design. Compound A was formulated as a granular formulation suitable for reconstitution (“Compound A pediatric formulation”) as described herein.
(§2) A 50 mg dose was used in this adult PK study.
For each study period, subjects received one of the 3 following treatments:
(§3) Treatment A: Single doses of 50 mg Compound A pediatric formulation (1 sachet of granules) under fed conditions.
(§4) Treatment B: Single doses of 50 mg Compound A pediatric formulation (1 sachet of granules) under fasting conditions.
(§5) Treatment C: Single doses of 50 mg Compound A adult tablet formulation (1×50 mg IR tablet) under fasting conditions.
Three groups of 8 subjects were randomized to one of the following 3 sequences.
Following an overnight fast of at least 10 hours, subjects received a standardized high-fat, high calorie meal 30 minutes before administration. Subjects must have eaten the total content of this meal in 30 minutes or less.
Thirty minutes after the start of breakfast, subjects were administered the suspension (the contents of one sachet of the Compound A pediatric formulation [granules for oral suspension] was mixed thoroughly with 120 mL of water at ambient temperature). Thereafter, the glass was rinsed twice with approximately 60 mL of water at ambient temperature and the subject was asked to drink the 60 mL of suspension each time. A total of approximately 240 mL of water was administered with the formulation within 5 minutes.
Additional food was then withheld for at least 4 hours following administration. Water was provided as needed until 1 hour pre-dose. Water was allowed beginning 1 hour after the administration of the drug.
Subjects fasted overnight for a minimum of 10 hours prior to dosing.
Subjects were administered the Compound A suspension (the contents of one sachet [granules for oral suspension] was mixed thoroughly with 120 mL of water at ambient temperature). Thereafter, the glass was rinsed twice with approximately 60 mL of water at ambient temperature and the subject was asked to drink the 60 mL of suspension each time. A total of approximately 240 mL of water was administered with the formulation within 5 minutes.
Fasting continued for at least 4 hours following Compound A administration. Water was provided as needed until 1 hour pre-dose. Water was allowed beginning 1 hour after the administration of the drug.
A single dose of the Compound A IR tablet was administered with approximately 240 mL of water, starting at 09:00, to 1 subject per 2 minute intervals.
Fasting continued for at least 4 hours following administration. Water was provided as needed until 1 hour pre-dose. Water was allowed beginning 1 hour after the administration of the drug.
Serial PK samples were obtained pre-dose and at specific timepoints through 48 h post-dose Plasma concentrations of Compound A were determined using validated liquid chromatography with tandem mass spectrometry method.

Data set [2] is described as follows: Pharmacokinetic study, urinary excretion of unchanged Compound A. The class given is in vivo, human. The following applies: for CL renal: human, urine, oral, 50 mg. The protocol: as §1, §2, §3, §4, §5
Overall (based on data from Cohorts 1 and 2), the fraction excreted in urine is less than 0.1%, thus the contribution of the urinary excretion in the disposition and elimination of the Compound A as a parent compound is negligible. The PK and statistical analysis were performed including all subjects with measurable pre-dose concentrations.

The mark [3] stands for this setting: pediatric formulation 50 mg, fed vs fasted.

Where two headings read alike, the source gives them in different places.

With `Cc1cc(S(=O)(=O)Nc2cscn2)c(F)cc1N(C)[C@H]1CCN(Cc2ccccc2)C1` [Compound A, (S)-4-((1-benzylpyrrolidin-3-yl)(methyl)amino)-2-fluoro-5-methyl-N-(thiazol-4-yl)benzenesulfonamide], the values for the AUC(0-inf) in data set [1] (fasting) and in data set [1] (fed (high-fat meal)) were 11300 ng·h/mL and 11800 ng·h/mL, respectively. For the same molecule, the figures for the AUC(0-t) in data set [1] (fasting) and in data set [1] (fed (high-fat meal)) were 11100 ng·h/mL and 11700 ng·h/mL, respectively. Moreover, in data set [1] (setting [3]), the “intra-subject CV % for AUC0-inf” value worked out at 9%. Also, the “intra-subject CV % for AUC0-t” value in data set [1] (setting [3]) is given as 11%. In addition, the “GMR for AUC0-inf” value in data set [1] (pediatric formulation 50 mg, fed vs fasted, 90% CI 97.98-107.58%) is reported as 102.67%. Moreover, the “GMR for AUC0-t” value in data set [1] (pediatric formulation 50 mg, fed vs fasted, 90% CI 98.23-109.57%) is 103.74%. The CL renal in data set [2] (pediatric formulation 50 mg, fasting) was 0.05 mL/min; in data set [2] (pediatric formulation 50 mg, fed), 0.055 mL/min. For the same molecule, the “fraction excreted in urine” value in data set [2] (overall, based on data from Cohorts 1 and 2) is reported as “less than 0.1%”. Besides, the “GMR for CLr” value in data set [2] (pediatric formulation 50 mg, fed vs fasting) was found to be 115.56%.
